One series concerns the target Bcl-2 protein (Homo sapiens (Human), UniProt P10415). Kind of series: Bcl-2 binding TR-FRET (Time-Resolved Fluorescence-Resonance-Energy-Transfer) assay. As to conditions: inhibition constant for binding to Bcl-2 protein. The source says:
The smaller the Ki value, the greater is the binding affinity.
Background: In TR-FRET formats the signal depends on donor and acceptor labels being close together.

Series [1] can be described thus: log D at pH 7.4 by an HPLC method. The series is classed as physicochemical. The source says: Table 2 below presents data for log D (a parameter related to lipophilicity) at pH 7.4, as determined by an HPLC method, for representative compounds.

By Ki is commonly meant a measure of affinity in units of concentration, obtained from inhibition or displacement. A low value points to tighter binding. The chromatographic logD is a lipophilicity value derived from retention on a column. Higher therefore signals a more lipophilic compound. For orientation: log D means the decadic logarithm of the distribution of all forms, ionised or not, between an organic phase and buffer at a given pH. Low values mean lower lipophilicity, high ones higher lipophilicity.

A value given as a limit tells only on which side of the number the result lay.

Bcl-2 protein, sequence (P10415 whole entry): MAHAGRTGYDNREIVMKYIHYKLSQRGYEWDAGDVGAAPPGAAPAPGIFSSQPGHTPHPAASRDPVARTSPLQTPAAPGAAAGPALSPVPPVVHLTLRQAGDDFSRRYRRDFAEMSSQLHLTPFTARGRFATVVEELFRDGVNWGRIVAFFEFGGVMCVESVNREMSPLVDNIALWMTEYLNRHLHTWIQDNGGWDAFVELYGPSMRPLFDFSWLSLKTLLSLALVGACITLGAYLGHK

As to `CC1(C)CCC(CN2CCN(c3ccc(C(=O)NS(=O)(=O)c4ccc(OCC5CCOCC5)c([N+](=O)[O-])c4)c(Oc4cnc5[nH]ccc5c4)c3)CC2)=C(c2ccc(Cl)cc2)C1` [Compound 24, 4-(4-{[2-(4-chlorophenyl)-4,4-dimethylcyclohex-1-en-1-yl]methyl}piperazin-1-yl)-N-{[3-nitro-4-(tetrahydro-2H-pyran-4-ylmethoxy)phenyl]sulfonyl}-2-(1H-pyrrolo[2,3-b]pyridin-5-yloxy)benzamide], the Ki on Bcl-2 protein is less than 0.01 nM. In series [1], this molecule showed a chromatographic logD of 5.72.
On to `CC1(C)CCC(CN2CCN(c3ccc(C(=O)NS(=O)(=O)c4ccc(OCC5COCCO5)c([N+](=O)[O-])c4)c(Oc4cnc5[nH]ccc5c4)c3)CC2)=C(c2ccc(Cl)cc2)C1` (stereo not drawn) [Compound 12, 4-(4-{[2-(4-chlorophenyl)-4,4-dimethylcyclohex-1-en-1-yl]methyl}piperazin-1-yl)-N-{[4-(1,4-dioxan-2-ylmethoxy)-3-nitrophenyl]sulfonyl}-2-(1H-pyrrolo[2,3-b]pyridin-5-yloxy)benzamide], for which the Ki on Bcl-2 protein was less than 0.01 nM. In series [1], this molecule displayed a chromatographic logD of 5.17.
`CN1CCC[C@H]1C(=O)N1CCC(COc2ccc(S(=O)(=O)NC(=O)c3ccc(N4CCN(CC5=C(c6ccc(Cl)cc6)CC(C)(C)CC5)CC4)cc3Oc3cnc4[nH]ccc4c3)cc2Cl)CC1` [Compound 312, N-[(3-chloro-4-{[1-(1-methyl-L-prolyl)piperidin-4-yl]methoxy}phenyl)sulfonyl]-4-(4-{[2-(4-chlorophenyl)-4,4-dimethylcyclohex-1-en-1-yl]methyl}piperazin-1-yl)-2-(1H-pyrrolo[2,3-b]pyridin-5-yloxy)benzamide]: the Ki on Bcl-2 protein was less than 0.01 nM. In series [1], the chromatographic logD was 6.47.
Molecule `CC1(C)CCC(CN2CCN(c3ccc(C(=O)NS(=O)(=O)c4ccc(NCCCN(C5CC5)C5COC5)c([N+](=O)[O-])c4)c(Oc4cnc5[nH]ccc5c4)c3)CC2)=C(c2ccc(Cl)cc2)C1` [Compound 311, 4-(4-{[2-(4-chlorophenyl)-4,4-dimethylcyclohex-1-en-1-yl]methyl}piperazin-1-yl)-N-{[4-({3-[cyclopropyl(oxetan-3-yl)amino]propyl}amino)-3-nitrophenyl]sulfonyl}-2-(1H-pyrrolo[2,3-b]pyridin-5-yloxy)benzamide] registered an inhibition constant (Ki) on Bcl-2 protein of less than 0.01 nM. Besides, in series [1], the chromatographic logD came to 5.6.
Turning to `CC1(C)CCC(CN2CCN(c3ccc(C(=O)NS(=O)(=O)c4ccc(OCC5(F)CCN(C6COC6)CC5)c(Cl)c4)c(Oc4cnc5[nH]ccc5c4)c3)CC2)=C(c2ccc(Cl)cc2)C1` [Compound 322, N-[(3-chloro-4-{[4-fluoro-1-(oxetan-3-yl)piperidin-4-yl]methoxy}phenyl)sulfonyl]-4-(4-{[2-(4-chlorophenyl)-4,4-dimethylcyclohex-1-en-1-yl]methyl}piperazin-1-yl)-2-(1H-pyrrolo[2,3-b]pyridin-5-yloxy)benzamide], the Ki at Bcl-2 protein was less than 0.01 nM. This molecule yielded a chromatographic logD in series [1] of 5.48.
`CC1(C)CCC(CN2CCN(c3ccc(C(=O)NS(=O)(=O)c4ccc(OCC5(F)CCOCC5)c([N+](=O)[O-])c4)c(Oc4cnc5[nH]ccc5c4)c3)CC2)=C(c2ccc(Cl)cc2)C1` [Compound 37, 4-(4-{[2-(4-chlorophenyl)-4,4-dimethylcyclohex-1-en-1-yl]methyl}piperazin-1-yl)-N-({4-[(4-fluorotetrahydro-2H-pyran-4-yl)methoxy]-3-nitrophenyl}sulfonyl)-2-(1H-pyrrolo[2,3-b]pyridin-5-yloxy)benzamide] displayed a Ki on Bcl-2 protein of less than 0.01 nM. The molecule further gave a chromatographic logD in series [1] of 5.27.
On Bcl-2 protein, `CC1(C)CCC(CN2CCN(c3ccc(C(=O)NS(=O)(=O)c4cnc(OCC5(F)CCN(C6COC6)CC5)c(Cl)c4)c(Oc4cnc5[nH]ccc5c4)c3)CC2)=C(c2ccc(Cl)cc2)C1` [Compound 277, N-[(5-chloro-6-{[4-fluoro-1-(oxetan-3-yl)piperidin-4-yl]methoxy}pyridin-3-yl)sulfonyl]-4-(4-{[2-(4-chlorophenyl)-4,4-dimethylcyclohex-1-en-1-yl]methyl}piperazin-1-yl)-2-(1H-pyrrolo[2,3-b]pyridin-5-yloxy)benzamide] gave a Ki of less than 0.01 nM. The molecule further had a chromatographic logD in series [1] of 5.26.
`CC1(C)CCC(CN2CCN(c3ccc(C(=O)NS(=O)(=O)c4ccc(OCC5(F)CCOCC5)c(Cl)c4)c(Oc4cnc5[nH]ccc5c4)c3)CC2)=C(c2ccc(Cl)cc2)C1` [Compound 286, N-({3-chloro-4-[(4-fluorotetrahydro-2H-pyran-4-yl)methoxy]phenyl}sulfonyl)-4-(4-{[2-(4-chlorophenyl)-4,4-dimethylcyclohex-1-en-1-yl]methyl}piperazin-1-yl)-2-(1H-pyrrolo[2,3-b]pyridin-5-yloxy)benzamide] returned a Ki on Bcl-2 protein of less than 0.01 nM. The same molecule came in with a chromatographic logD in series [1] of 5.66.
Take `CN1CCN(Nc2ccc(S(=O)(=O)NC(=O)c3ccc(N4CCN(CC5=C(c6ccc(Cl)cc6)CC(C)(C)CC5)CC4)cc3Oc3ccc4[nH]ccc4c3)cc2[N+](=O)[O-])CC1` [Compound 91, 4-(4-{[2-(4-chlorophenyl)-4,4-dimethylcyclohex-1-en-1-yl]methyl}piperazin-1-yl)-2-(1H-indol-5-yloxy)-N-({4-[(4-methylpiperazin-1-yl)amino]-3-nitrophenyl}sulfonyl)benzamide]: in series [1], the chromatographic logD is 6.59.
`CC1(C)CCC(CN2CCN(c3ccc(C(=O)NS(=O)(=O)c4ccc(NC[C@H]5CC[C@](C)(O)CC5)c([N+](=O)[O-])c4)c(Oc4cnc5[nH]ccc5c4)c3)CC2)=C(c2ccc(Cl)cc2)C1` [Compound 338, 4-(4-{[2-(4-chlorophenyl)-4,4-dimethylcyclohex-1-en-1-yl]methyl}piperazin-1-yl)-N-[(4-{[(cis-4-hydroxy-4-methylcyclohexyl)methyl]amino}-3-nitrophenyl)sulfonyl]-2-(1H-pyrrolo[2,3-b]pyridin-5-yloxy)benzamide]: in series [1], the “log D” value amounted to 5.67.

The values are drawn from patent US10213433B2 (AbbVie Inc., priority 2010, dated 2019).
